Source: patent US20240238422A1 (Osprey Biopharmaceuticals, Inc., priority 2021, published 2024)

What was measured:
[1] = target: T1, mouse CD22 (Mus musculus, UniProt P35329); experiment: SPR binding of synthetic Siglec ligands to mouse CD22 ectodomain (Biacore 8K+); conditions: for Kd: SPR, alkyne-terminating precursors of the PFP linkers, read-out: Mouse Siglec-2 Binding Affinity; for Mouse Siglec-2 Binding Affinity: grade in words for the conjugatable Siglec ligand-linker
T1 construct: synthetic Siglec ligands for recombinant human and mouse CD22 ectodomains
T1 sequence (P35329 22-708 limits assumed): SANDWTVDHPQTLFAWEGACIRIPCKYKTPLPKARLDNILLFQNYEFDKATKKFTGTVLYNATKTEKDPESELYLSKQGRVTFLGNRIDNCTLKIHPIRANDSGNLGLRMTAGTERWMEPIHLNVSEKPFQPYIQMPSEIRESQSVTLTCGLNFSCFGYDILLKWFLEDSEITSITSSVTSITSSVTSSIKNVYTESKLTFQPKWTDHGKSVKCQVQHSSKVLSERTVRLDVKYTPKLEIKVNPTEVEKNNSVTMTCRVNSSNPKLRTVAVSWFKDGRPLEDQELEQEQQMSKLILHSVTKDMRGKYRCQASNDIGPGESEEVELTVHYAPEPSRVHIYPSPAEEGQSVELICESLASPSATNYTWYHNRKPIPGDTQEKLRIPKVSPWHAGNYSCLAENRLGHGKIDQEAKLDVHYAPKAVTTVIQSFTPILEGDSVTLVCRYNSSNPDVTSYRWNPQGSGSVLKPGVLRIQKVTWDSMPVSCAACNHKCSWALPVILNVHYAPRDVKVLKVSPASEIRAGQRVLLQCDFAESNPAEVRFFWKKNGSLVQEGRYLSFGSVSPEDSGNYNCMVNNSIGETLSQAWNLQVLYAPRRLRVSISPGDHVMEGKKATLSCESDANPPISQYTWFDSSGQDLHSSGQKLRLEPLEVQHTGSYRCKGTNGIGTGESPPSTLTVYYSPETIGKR
Procedure: (§1) The following ligands were evaluated for mouse and human CD22 binding: 1) BPC-Neu5Gc PEG (Cpd. No. 26463), 2) BPC-Neu5Gc GAL (Cpd. No. 26339), 3) MPB-Neu5Ac PEG (Cpd. No. 26334), 4) MPB-Neu5Ac GAL (Cpd. No. 26409), 5) Neu5Gc PEG (Cpd. No. 26591). All tested compounds are alkyne-terminating precursors of PFP-terminating, conjugatable Siglec Linker structures used in conjugates in the following examples.
(§2) Binding assays for synthetic CD22 ligand binding to CD22 receptor ectodomain were run on a Biacore 8K+ instrument (Cytiva). Surface preparation for CD22 conjugates binding to human or mouse CD22 protein consisted of two steps, covalent immobilization of streptavidin followed by capture of Avi-tagged and biotinylated human CD22-Fc fusion (R&D Systems, Cat #AV11968-050) and a mono-Fc fusion of mouse CD22. Using standard amine coupling protocols, Streptavidin (Invitrogen, Cat #: 434301) was immobilized to a Cytiva CM5 chip (Cytiva, Cat #BR100530) by injecting at 100 ug/mL in Sodium Acetate, pH 4.5 (Cytiva, Cat #BR100350) on both flow cells, yielding a final response of 2500 RU. Capture of biotinylated mono Fc human CD22 was performed on channels 1-4 and mouse CD22 on channels 5-8 on the active flow cell (2) and the reference flow cell (1) was kept as unmodified streptavidin to account for any non-specific binding. Human CD22 or mouse CD22 (mono-Fc fusion, 5 μg/mL) was injected on the active flow cell (2) for 90 seconds at 5 μL/min, yielding about 210 RU of captured constructs.
(§3) Binding experiments of Siglec-ligand conjugated proteins were performed on the surfaces prepared above in HBS-EP+ (10 mM HEPES, 150 mM NaCl, 3 mM EDTA, 0.05% Tween-20, pH 7.5) as the running buffer. Conjugates were serially diluted 1:1 in running buffer from 1 μM to 31.25 nM and injected over both the reference and active flow cells for 90 seconds at 30 μL/min. The conjugates were then allowed to dissociate from the surface for 300 seconds. No regeneration was required as the conjugates completely dissociated from the surface after 30 seconds.

[2] = target: T2, human CD22 (Homo sapiens, UniProt P20273); experiment: SPR binding of synthetic Siglec ligands to human CD22 ectodomain (Biacore 8K+); conditions: for Kd: SPR, alkyne-terminating precursors of the PFP linkers, read-out: Human Siglec-2 Binding Affinity; for Human Siglec-2 Binding Affinity: grade in words for the conjugatable Siglec ligand-linker
T2 construct: Fc (human CD22-Fc fusion); purchased R&D Systems AV11968-050
Procedure: as §1, §2, §3

T2 sequence (P20273 20-687 limits assumed): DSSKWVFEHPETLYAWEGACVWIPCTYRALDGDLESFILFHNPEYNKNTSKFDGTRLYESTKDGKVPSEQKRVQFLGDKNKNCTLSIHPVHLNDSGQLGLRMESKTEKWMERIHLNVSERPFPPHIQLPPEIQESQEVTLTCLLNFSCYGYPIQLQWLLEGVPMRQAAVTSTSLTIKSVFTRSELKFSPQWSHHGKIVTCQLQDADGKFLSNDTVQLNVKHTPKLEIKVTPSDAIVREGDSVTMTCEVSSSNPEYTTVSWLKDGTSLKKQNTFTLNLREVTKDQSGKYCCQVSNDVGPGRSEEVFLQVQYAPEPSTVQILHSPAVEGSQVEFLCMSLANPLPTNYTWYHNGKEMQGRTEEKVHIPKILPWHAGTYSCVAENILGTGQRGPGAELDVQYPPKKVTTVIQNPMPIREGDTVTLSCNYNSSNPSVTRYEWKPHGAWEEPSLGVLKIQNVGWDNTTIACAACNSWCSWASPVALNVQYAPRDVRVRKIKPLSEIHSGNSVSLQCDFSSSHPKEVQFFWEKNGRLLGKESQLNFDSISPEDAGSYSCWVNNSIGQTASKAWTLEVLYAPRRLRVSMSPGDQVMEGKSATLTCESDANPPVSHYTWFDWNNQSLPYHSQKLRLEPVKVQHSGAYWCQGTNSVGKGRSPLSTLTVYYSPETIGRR

SMILES | Kd [1] | Kd [2] | Mouse Siglec-2 Binding Affinity [1] | Human Siglec-2 Binding Affinity [2]
C#CCCO[C@@H]1O[C@H](CO[C@]2(C(=O)O)C[C@H](O)[C@@H](NC(=O)CO)[C@H]([C@H](O)[C@H](O)CNC(=O)Cc3ccc(-c4ccccc4)cc3)O2)[C@H](O)[C@H](O)[C@H]1O | 17.2 µM | 2.5 µM |  | 
O=C(CCOCCOCCn1cc(CCO[C@@H]2O[C@H](CO[C@]3(C(=O)O)C[C@H](O)[C@@H](NC(=O)CO)[C@H]([C@H](O)[C@H](O)CNC(=O)Cc4ccc(-c5ccccc5)cc4)O3)[C@H](O)[C@H](O)[C@H]2O)nn1)NCCCCC(NC(=O)CCCNC(=O)CCOCCOCCn1cc(CCO[C@@H]2O[C@H](CO[C@]3(C(=O)O)C[C@H](O)[C@@H](NC(=O)CO)[C@H]([C@H](O)[C@H](O)CNC(=O)Cc4ccc(-c5ccccc5)cc4)O3)[C@H](O)[C@H](O)[C@H]2O)nn1)C(=O)NCCOCCOCCOCCOCCC(=O)Oc1c(F)c(F)c(F)c(F)c1F (mixture of isomers) [Cpd. No. 26416] |  |  | Strong | Strong
CC(=O)N[C@H]1[C@H]([C@H](O)[C@H](O)CNC(=O)c2cccc(Oc3ccccc3)c2)O[C@@](OC[C@H]2O[C@@H](OCCc3cn(CCOCCOCCC(=O)NCCCC[C@H](NC(=O)CCCNC(=O)CCOCCOCCn4cc(CCO[C@@H]5O[C@H](CO[C@]6(C(=O)O)C[C@H](O)[C@@H](NC(C)=O)[C@H]([C@H](O)[C@H](O)CNC(=O)c7cccc(Oc8ccccc8)c7)O6)[C@H](O)[C@H](O)[C@H]5O)nn4)C(=O)NCCOCCOCCOCCOCCC(=O)Oc4c(F)c(F)c(F)c(F)c4F)nn3)[C@H](O)[C@@H](O)[C@H]2O)(C(=O)O)C[C@@H]1O (mixture of isomers) [Cpd. No. 26468] |  |  | V. weak | Strong
CC(=O)N[C@H]1[C@H]([C@H](O)[C@H](O)CNC(=O)c2cccc(Oc3ccccc3)c2)O[C@@](OCCOCCOCc2cn(CCOCCOCCOCCOCCC(=O)Oc3c(F)c(F)c(F)c(F)c3F)nn2)(C(=O)O)C[C@@H]1O [Cpd. No. 24836, (2R,4S,5R,6R)-5-acetamido-6-((1R,2R)-1,2-dihydroxy-3-(3-phenoxybenzamido)propyl)-4-hydroxy-2-(2-(2-((1-(15-oxo-15-(perfluorophenoxy)-3,6,9,12-tetraoxapentadecyl)-1H-1,2,3-triazol-4-yl)methoxy)ethoxy)ethoxy)tetrahydro-2H-pyran-2-carboxylic acid] |  |  | V. weak | Strong
CC(=O)N[C@H]1[C@H]([C@H](O)[C@H](O)CNC(=O)c2cccc(Oc3ccccc3)c2)O[C@@](OC[C@H]2O[C@@H](OCCc3cn(CCOCCOCCOCCOCCC(=O)Oc4c(F)c(F)c(F)c(F)c4F)nn3)[C@H](O)[C@@H](O)[C@H]2O)(C(=O)O)C[C@@H]1O [Cpd. No. 24906, (2R,4S,5R,6R)-5-acetamido-6-((1R,2R)-1,2-dihydroxy-3-(3-phenoxybenzamido)propyl)-4-hydroxy-2-(((2R,3R,4S,5R,6R)-3,4,5-trihydroxy-6-(2-(1-(15-oxo-15-(perfluorophenoxy)-3,6,9,12-tetraoxapentadecyl)-1H-1,2,3-triazol-4-yl)ethoxy)tetrahydro-2H-pyran-2-yl)methoxy)tetrahydro-2H-pyran-2-carboxylic acid] |  |  | V. weak | Strong
O=C(Cc1ccc(-c2ccccc2)cc1)NC[C@@H](O)[C@@H](O)[C@@H]1O[C@@](OCCOCCOCc2cn(CCOCCOCCOCCOCCC(=O)Oc3c(F)c(F)c(F)c(F)c3F)nn2)(C(=O)O)C[C@H](O)[C@H]1NC(=O)CO [Cpd. No. 26288, (2R,4S,5R,6R)-6-((1R,2R)-3-(2-([1,1′-biphenyl]-4-yl)acetamido)-1,2-dihydroxypropyl)-4-hydroxy-5-(2-hydroxyacetamido)-2-(2-(2-((1-(15-oxo-15-(perfluorophenoxy)-3,6,9,12-tetraoxapentadecyl)-1H-1,2,3-triazol-4-yl)methoxy)ethoxy)ethoxy)tetrahydro-2H-pyran-2-carboxylic acid] |  |  | Strong | Strong
CC(=O)N[C@H]1[C@H]([C@H](O)[C@H](O)CNC(=O)c2cccc(Oc3ccccc3)c2)O[C@@](OCCOCc2cn(CCOCCOCCC(=O)NCCCC[C@H](NC(=O)CCCNC(=O)CCOCCOCCn3cc(COCCO[C@]4(C(=O)O)C[C@H](O)[C@@H](NC(C)=O)[C@H]([C@H](O)[C@H](O)CNC(=O)c5cccc(Oc6ccccc6)c5)O4)nn3)C(=O)NCCOCCOCCOCCOCCC(=O)Oc3c(F)c(F)c(F)c(F)c3F)nn2)(C(=O)O)C[C@@H]1O [Cpd. No. 26289, (2R,2′R,4S,4′S,5R,5′R,6R,6′R)-2,2′-(((((((S)-9,14,22-trioxo-16-((15-oxo-15-(perfluorophenoxy)-3,6,9,12-tetraoxapentadecyl)carbamoyl)-3,6,25,28-tetraoxa-10,15,21-triazatriacontane-1,30-diyl)bis(1H-1,2,3-triazole-1,4-diyl))bis(methylene))bis(oxy))bis(ethane-2,1-diyl))bis(oxy))bis(5-acetamido-6-((1R,2R)-1,2-dihydroxy-3-(3-phenoxybenzamido)propyl)-4-hydroxytetrahydro-2H-pyran-2-carboxylic acid)] |  |  | V. weak | Strong
C#CCOCCOCCO[C@]1(C(=O)O)C[C@H](O)[C@@H](NC(C)=O)[C@H]([C@H](O)[C@H](O)CNC(=O)c2cccc(Oc3ccccc3)c2)O1 [Cpd. No. 26334, (2R,4S,5R,6R)-5-acetamido-6-((1R,2R)-1,2-dihydroxy-3-(3-phenoxybenzamido)propyl)-4-hydroxy-2-(2-(2-(prop-2-yn-1-yloxy)ethoxy)ethoxy)tetrahydro-2H-pyran-2-carboxylic acid] | > 100 µM | 0.93 µM |  | 
C#CCCO[C@@H]1O[C@H](CO[C@]2(C(=O)O)C[C@H](O)[C@@H](NC(C)=O)[C@H]([C@H](O)[C@H](O)CNC(=O)c3cccc(Oc4ccccc4)c3)O2)[C@H](O)[C@H](O)[C@H]1O [Cpd. No. 26409, (2R,4S,5R,6R)-5-acetamido-2-(((2R,3R,4S,5R,6R)-6-(but-3-yn-1-yloxy)-3,4,5-trihydroxytetrahydro-2H-pyran-2-yl)methoxy)-6-((1R,2R)-1,2-dihydroxy-3-(3-phenoxybenzamido)propyl)-4-hydroxytetrahydro-2H-pyran-2-carboxylic acid] | > 100 µM | 1 µM |  | 
O=C(Cc1ccc(-c2ccccc2)cc1)NC[C@@H](O)[C@@H](O)[C@@H]1O[C@@](OC[C@H]2O[C@@H](OCCc3cn(CCOCCOCCOCCOCCC(=O)Oc4c(F)c(F)c(F)c(F)c4F)nn3)[C@H](O)[C@@H](O)[C@H]2O)(C(=O)O)C[C@H](O)[C@H]1NC(=O)CO [Cpd. No. 26415, (2R,4S,5R,6R)-6-((1R,2R)-3-(2-([1,1′-biphenyl]-4-yl)acetamido)-1,2-dihydroxypropyl)-4-hydroxy-5-(2-hydroxyacetamido)-2-(((2R,3R,4S,5R,6R)-3,4,5-trihydroxy-6-(2-(1-(15-oxo-15-(perfluorophenoxy)-3,6,9,12-tetraoxapentadecyl)-1H-1,2,3-triazol-4-yl)ethoxy)tetrahydro-2H-pyran-2-yl)methoxy)tetrahydro-2H-pyran-2-carboxylic acid] |  |  | Strong | Strong
